Holding throughout (details): route oral
In experiment [1] the test system is Rattus norvegicus. The experiment in a line: Percentage decrease in systolic blood pressure (heart rate) after 24 hr at 100 mg/kg administered perorally in rats. In kind it is functional, Artery.
For experiment [2], the system named is Rattus norvegicus. Nature of the experiment: Percentage decrease in systolic blood pressure (heart rate) after 4 hr at 100 mg/kg administered perorally in rats. The class given is functional, Artery.
The test system of experiment [3] is Rattus norvegicus. The experiment in a line: Effect on spontaneous motor activity in rats after 2 hr at 30 mg/kg given perorally. The class given is functional.
The subject of experiment [4] is Rattus norvegicus. The experiment in a line: Percentage decrease in systolic blood pressure (heart rate) after 1 hr at 0.3 mg/kg administered perorally in rats. The class given is functional, Artery.
The subject of experiment [5] is Rattus norvegicus. The experiment in a line: Effect on spontaneous motor activity in rats after 1 hr at 3 mg/kg given perorally. The class given is functional.
Experiment [6] deals with Rattus norvegicus. Nature of the experiment: Percentage decrease in systolic blood pressure (heart rate) after 24 hr at 1 mg/kg administered perorally in rats. The class given is functional, Artery.
In experiment [7] the test system is Rattus norvegicus. The experiment in a line: Effect on spontaneous motor activity in rats after 1 hr at 1 mg/kg given perorally. The class given is functional.
The test system of experiment [8] is Rattus norvegicus. The experiment in a line: Effect on spontaneous motor activity in rats after 2 hr at 3 mg/kg given perorally. The class given is functional.
Experiment [9] deals with Rattus norvegicus. The experiment in a line: Percentage decrease in systolic blood pressure (heart rate) after 6 hr at 0.3 mg/kg administered perorally in rats. The class given is functional, Artery.
Experiment [10] deals with Rattus norvegicus. Nature of the experiment: Cumulative effect on spontaneous motor activity in rats at 0.1 mg/kg given perorally. In kind it is functional.
In experiment [11] the test system is Rattus norvegicus. The experiment in a line: Cumulative effect on spontaneous motor activity in rats at 300 mg/kg given perorally. In kind it is functional.
The subject of experiment [12] is Rattus norvegicus. The experiment in a line: Percentage decrease in systolic blood pressure (heart rate) after 4 hr at 0.3 mg/kg administered perorally in rats. In kind it is functional, Artery.
In experiment [13] the test system is Rattus norvegicus. The experiment in a line: Percentage decrease in systolic blood pressure (heart rate) after 4 hr at 10 mg/kg administered perorally in rats. In kind it is functional, Artery.
The test system of experiment [14] is Rattus norvegicus. Nature of the experiment: Effect on spontaneous motor activity in rats after 2 hr at 0.1 mg/kg given perorally. In kind it is functional.
The subject of experiment [15] is Rattus norvegicus. Nature of the experiment: Percentage decrease in systolic blood pressure (heart rate) after 24 hr at 10 mg/kg administered perorally in rats. The class given is functional, Artery.
Experiment [16] has as its system Rattus norvegicus. The experiment in a line: Effect on spontaneous motor activity in rats after 1 hr at 0.1 mg/kg given perorally. The class given is functional.
Experiment [17] relates to Rattus norvegicus. The experiment in a line: Cumulative effect on spontaneous motor activity in rats at 0.3 mg/kg given perorally. The class given is functional.
Experiment [18] deals with Rattus norvegicus. Nature of the experiment: Effect on spontaneous motor activity in rats after 1 hr at 0.3 mg/kg given perorally. The class given is functional.
For experiment [19], the system named is Rattus norvegicus. Nature of the experiment: Percentage decrease in systolic blood pressure (heart rate) after 4 hr at 1 mg/kg administered perorally in rats. In kind it is functional, Artery.
For experiment [20], the system named is Rattus norvegicus. The experiment in a line: Percentage decrease in systolic blood pressure (heart rate) after 1 hr at 3 mg/kg administered perorally in rats. The class given is functional, Artery.
The test system of experiment [21] is Rattus norvegicus. The experiment in a line: Effect on spontaneous motor activity in rats after 1 hr at 30 mg/kg given perorally. The class given is functional.
For experiment [22], the system named is Rattus norvegicus. Nature of the experiment: Percentage decrease in systolic blood pressure (heart rate) after 24 hr at 0.3 mg/kg administered perorally in rats. The class given is functional, Artery.
The test system of experiment [23] is Rattus norvegicus. The experiment in a line: Effect on spontaneous motor activity in rats after 2 hr at 0.3 mg/kg given perorally. In kind it is functional.
Experiment [24] has as its system Rattus norvegicus. Nature of the experiment: Percentage decrease in systolic blood pressure (heart rate) after 6 hr at 3 mg/kg administered perorally in rats. In kind it is functional, Artery.
The subject of experiment [25] is Rattus norvegicus. The experiment in a line: Effect on spontaneous motor activity in rats after 2 hr at 1 mg/kg given perorally. The class given is functional.
Experiment [26] deals with Rattus norvegicus. The experiment in a line: Cumulative effect on spontaneous motor activity in rats at 3 mg/kg given perorally. In kind it is functional.
Experiment [27] relates to Rattus norvegicus. The experiment in a line: Percentage decrease in systolic blood pressure (heart rate) after 4 hr at 3 mg/kg administered perorally in rats. The class given is functional, Artery.
The test system of experiment [28] is Rattus norvegicus. Nature of the experiment: Percentage decrease in systolic blood pressure (heart rate) after 1 hr at 10 mg/kg administered perorally in rats. The class given is functional, Artery.
For experiment [29], the system named is Rattus norvegicus. Nature of the experiment: Effect on spontaneous motor activity in rats after 2 hr at 10 mg/kg given perorally. The class given is functional.
Experiment [30] has as its system Rattus norvegicus. Nature of the experiment: Effect on spontaneous motor activity in rats after 1 hr at 10 mg/kg given perorally. The class given is functional.
Experiment [31] has as its system Rattus norvegicus. Nature of the experiment: Percentage decrease in systolic blood pressure (heart rate) after 6 hr at 1 mg/kg administered perorally in rats. The class given is functional, Artery.

Take `CCCCCc1cc(O)c2c(c1)OC(C)(C)[C@@H]1CCC(C)=C[C@@H]21` [DRONABINOL]: the “Decrease in Systolic blood pressure” value was 21% in the experiment with Rattus norvegicus [1] and 39% in the experiment on Rattus norvegicus [2].

Regarding `CCCCCCCc1cc(O)c2c(c1)OC(C)(C)c1ccc(C)cc1-2`, the Activity is reported as -94% in the experiment on Rattus norvegicus [3]; -20% with Rattus norvegicus [5]; -32% in the experiment with Rattus norvegicus [7]; -17% with Rattus norvegicus [8]; -2% in the experiment on Rattus norvegicus [10]; -89% with Rattus norvegicus [11]. Further, the Activity in the experiment on Rattus norvegicus [14] is on record as 10%; with Rattus norvegicus [16] it was -3%; in the experiment on Rattus norvegicus [17] it was -17%; with Rattus norvegicus [18] it was -21%; in the experiment with Rattus norvegicus [21], -88%; in the experiment with Rattus norvegicus [23] it was 28%. Further, the Activity in the experiment on Rattus norvegicus [25] is listed as 87%; in the experiment with Rattus norvegicus [26] it was -20%; in the experiment on Rattus norvegicus [29], -98%; with Rattus norvegicus [30], -46%. In addition, the “Decrease in Systolic blood pressure” value in the experiment with Rattus norvegicus [4] was 3%; with Rattus norvegicus [6] it was -7%; in the experiment with Rattus norvegicus [9] it was 2%; in the experiment on Rattus norvegicus [12] it was 10%; with Rattus norvegicus [13], 58%; in the experiment on Rattus norvegicus [15], 29%. The “Decrease in Systolic blood pressure” value in the experiment on Rattus norvegicus [19] worked out at 20%; in the experiment with Rattus norvegicus [20] it was 3%; in the experiment with Rattus norvegicus [22], 0%; in the experiment with Rattus norvegicus [24], 38%; in the experiment on Rattus norvegicus [27] it was 44%; in the experiment with Rattus norvegicus [28], 9%. Also, in the experiment with Rattus norvegicus [31], the “Decrease in Systolic blood pressure” value is listed as 33%.

The values above are taken from ChEMBL document CHEMBL1122324, “New antihypertensive cannabinoids” (1983).
